Here are results for nine compounds from ChEMBL document CHEMBL1201862, “PubChem BioAssay data set” (2004).

Test systems include COLO 205; SK-MEL-28; HT-29; A549; 786-0; HCT-15; HCT-116; KM12; NCI-H522; MDA-MB-435; NCI-H460; OVCAR-8; NCI-H23; LOX IMVI; MDA-N; SF-268; SF-295; MOLT-4.
Holding throughout (experiment): inhibition of tumour cell growth, NCI panel, 48 h

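These data come from cells grown in 96-well plates and exposed to compound for 48 hours at five concentrations. GI50 is the concentration that inhibits growth by half.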 Activity calls are given as the source filed them. Rule as the data show it: active = GI50 up to about 1.1 µM and inactive = higher.

As for `Cc1cn2c(/C=N/NC(=N)N)c(-c3ccc(Cl)c([N+](=O)[O-])c3)nc2s1`, the GI50 in the assay with COLO 205 is 0.661 µM (active); with SK-MEL-28, 1.71 µM (inactive); with HT-29 it was 0.55 µM (active); with A549, 1.61 µM (inactive); in the assay with 786-0, 0.984 µM (active); in the assay with HCT-15, 1.7 µM. For the same compound, the GI50 with HCT-116 was 0.207 µM (active); in the assay on KM12 it was 0.387 µM (active); in the assay with NCI-H522, 0.16 µM (active); with MDA-MB-435, 0.611 µM (active); in the assay on NCI-H460, 1.42 µM (inactive); in the assay with OVCAR-8 it was 0.416 µM (active). The GI50 with NCI-H23 is 1.43 µM (inactive); with LOX IMVI, 0.409 µM (active); with MDA-N, 0.857 µM (active); with SF-268, 1.23 µM (inactive); with SF-295, 1.3 µM (inactive).

Take `N/N=C1/C(=O)N(c2ccc(Cl)cc2)C(=O)C(=O)C1c1nc2ccccc2s1` (stereo unspecified): the GI50 with COLO 205 is > 100 µM (inactive); with SK-MEL-28 it was > 100 µM (inactive); in the assay with HT-29, > 100 µM (inactive); in the assay on A549, > 100 µM (inactive); in the assay on 786-0 it was > 100 µM (inactive); with HCT-15, 72.1 µM. For the same compound, the GI50 in the assay on HCT-116, in the assay on KM12, in the assay on NCI-H522, with NCI-H460, in the assay with MOLT-4 and with OVCAR-8 was > 100 µM (inactive) throughout. For the same compound, the GI50 in the assay with NCI-H23, in the assay with LOX IMVI, in the assay with SF-268 and in the assay with SF-295 was > 100 µM (inactive) in each case.

Consider `COC(=O)C1=C(C)N(NC(N)=O)C(C)(O)C12CCOC2=O` (stereo unspecified), for which the GI50 in the assay with COLO 205 was > 100 µM (inactive); in the assay on SK-MEL-28 it was > 100 µM (inactive); in the assay on HT-29, > 100 µM (inactive); in the assay on A549 it was > 100 µM (inactive); in the assay on 786-0, > 100 µM (inactive); in the assay on HCT-15, greater than 100 µM. Also, the GI50 with HCT-116, in the assay with KM12, in the assay with NCI-H522, in the assay with NCI-H460, in the assay with MOLT-4 and with OVCAR-8 was > 100 µM (inactive) each time. Also, the GI50 with NCI-H23, with LOX IMVI, with SF-268 and with SF-295 was > 100 µM (inactive) each time.

Turning to `COC(=O)CCc1cccnc1/C=N/O`, the GI50 in the assay on COLO 205 was > 100 µM (inactive); in the assay with SK-MEL-28, > 100 µM (inactive); in the assay with HT-29, > 100 µM (inactive); with A549 it was > 100 µM (inactive); in the assay on 786-0, > 100 µM (inactive); with HCT-15, greater than 100 µM. In addition, the GI50 was > 100 µM (inactive) in the assay with HCT-116; > 100 µM (inactive) with KM12; > 100 µM (inactive) in the assay with NCI-H522; 27.4 µM (inactive) in the assay on NCI-H460; > 100 µM (inactive) in the assay with MOLT-4; > 100 µM (inactive) with OVCAR-8. The GI50 in the assay with NCI-H23, in the assay with LOX IMVI, with SF-268 and in the assay with SF-295 was > 100 µM (inactive) each time.

Consider `Cn1nc(-c2ccccc2)c(C(=O)/C=C/c2ccc(Cl)cc2)c(N2CCCCC2)c1=O`, for which the GI50 in the assay on COLO 205 is 2.23 µM (inactive); in the assay on SK-MEL-28, 3.78 µM (inactive); with HT-29, 1.45 µM (inactive); in the assay with A549 it was 2.92 µM (inactive); in the assay with 786-0, 1.69 µM (inactive); with HCT-15, 2.98 µM. Also, the GI50 in the assay on HCT-116 is 1.81 µM (inactive); in the assay with NCI-H522, 1.85 µM (inactive); in the assay with NCI-H460 it was 2.52 µM (inactive); in the assay with MOLT-4, 1.53 µM (inactive); with OVCAR-8, 3.8 µM (inactive); in the assay with NCI-H23 it was 2.19 µM (inactive). Further, the GI50 in the assay with LOX IMVI is 2.41 µM (inactive); in the assay on SF-268 it was 2 µM (inactive); with SF-295, 0.719 µM (active).

In the case of `CC(=O)NNc1nc(C)c(C(=O)NNC(=O)C(=O)Nc2ccc(C)c(C)c2)s1`, the GI50 in the assay on COLO 205 was > 100 µM (inactive); in the assay with SK-MEL-28, > 100 µM (inactive); in the assay with HT-29 it was > 100 µM (inactive); in the assay with A549, > 100 µM (inactive); in the assay with 786-0 it was > 100 µM (inactive); in the assay with HCT-15, 78.9 µM. Also, the GI50 with HCT-116 is > 100 µM (inactive); in the assay on KM12, 42.5 µM (inactive); in the assay with NCI-H522, 18.5 µM (inactive); in the assay on NCI-H460 it was 95.3 µM (inactive); in the assay with MOLT-4, 39.6 µM (inactive); in the assay on OVCAR-8, 55.5 µM (inactive). Further, the GI50 was > 100 µM (inactive) in the assay with NCI-H23, 16.7 µM (inactive) in the assay on LOX IMVI, > 100 µM (inactive) in the assay with SF-268 and 78.5 µM (inactive) with SF-295.

Take `NC(=O)Cn1c(=O)oc2cc(C(=O)CN3CCOCC3)ccc21`: the GI50 in the assay on COLO 205, in the assay on SK-MEL-28, in the assay on HT-29, in the assay on 786-0, with HCT-116 and in the assay on KM12 was > 100 µM (inactive) throughout. The GI50 with MDA-MB-435, in the assay on MOLT-4, with OVCAR-8, with LOX IMVI, in the assay with MDA-N and in the assay with SF-268 was > 100 µM (inactive) throughout. Also, the GI50 in the assay on SF-295 is > 100 µM (inactive).

Turning to `CC(C)=CC1CCc2ccccc2N1S(=O)(=O)c1ccc(C)cc1` (stereo unspecified), the GI50 in the assay with COLO 205 was 1.06 µM (active); in the assay on SK-MEL-28 it was 1.96 µM (inactive); in the assay on HT-29 it was 1.36 µM (inactive); in the assay with A549 it was 1.22 µM (inactive); in the assay on 786-0, 2.35 µM (inactive); in the assay with HCT-15 it was 1.09 µM. For the same compound, the GI50 is 0.982 µM (active) with HCT-116; 0.624 µM (active) in the assay on KM12; 1.52 µM (inactive) in the assay with NCI-H522; 1.36 µM (inactive) in the assay with NCI-H460; 1.18 µM (inactive) in the assay on MOLT-4; 2.72 µM (inactive) with OVCAR-8. Besides, the GI50 in the assay with NCI-H23 is 1.4 µM (inactive); with LOX IMVI, 1.68 µM (inactive); with SF-268, 2.93 µM (inactive); with SF-295, 1.5 µM (inactive).

For `O=C1/C(=C/c2ccc(Cl)cc2)NC(=S)N1CN1CCOCC1`, the GI50 is > 100 µM (inactive) with COLO 205; > 100 µM (inactive) in the assay with SK-MEL-28; > 100 µM (inactive) with HT-29; > 100 µM (inactive) in the assay on A549; > 100 µM (inactive) with 786-0; greater than 100 µM in the assay with HCT-15. For the same compound, the GI50 in the assay on HCT-116, in the assay on KM12, in the assay on MDA-MB-435, with MOLT-4, with OVCAR-8 and with NCI-H23 was > 100 µM (inactive) throughout. Also, the GI50 in the assay with LOX IMVI, in the assay with MDA-N, with SF-268 and in the assay with SF-295 was > 100 µM (inactive) each time.
